According to article PMC11557590 (Nature Communications, 2024):

Target: FLAGELLIN-SENSING 2 (FLS2) (Arabidopsis thaliana, UniProt Q9FL28)
Assay: microscale thermophoresis
Format: binding

Chain of FLAGELLIN-SENSING 2 (FLS2) (Q9FL28 24-804): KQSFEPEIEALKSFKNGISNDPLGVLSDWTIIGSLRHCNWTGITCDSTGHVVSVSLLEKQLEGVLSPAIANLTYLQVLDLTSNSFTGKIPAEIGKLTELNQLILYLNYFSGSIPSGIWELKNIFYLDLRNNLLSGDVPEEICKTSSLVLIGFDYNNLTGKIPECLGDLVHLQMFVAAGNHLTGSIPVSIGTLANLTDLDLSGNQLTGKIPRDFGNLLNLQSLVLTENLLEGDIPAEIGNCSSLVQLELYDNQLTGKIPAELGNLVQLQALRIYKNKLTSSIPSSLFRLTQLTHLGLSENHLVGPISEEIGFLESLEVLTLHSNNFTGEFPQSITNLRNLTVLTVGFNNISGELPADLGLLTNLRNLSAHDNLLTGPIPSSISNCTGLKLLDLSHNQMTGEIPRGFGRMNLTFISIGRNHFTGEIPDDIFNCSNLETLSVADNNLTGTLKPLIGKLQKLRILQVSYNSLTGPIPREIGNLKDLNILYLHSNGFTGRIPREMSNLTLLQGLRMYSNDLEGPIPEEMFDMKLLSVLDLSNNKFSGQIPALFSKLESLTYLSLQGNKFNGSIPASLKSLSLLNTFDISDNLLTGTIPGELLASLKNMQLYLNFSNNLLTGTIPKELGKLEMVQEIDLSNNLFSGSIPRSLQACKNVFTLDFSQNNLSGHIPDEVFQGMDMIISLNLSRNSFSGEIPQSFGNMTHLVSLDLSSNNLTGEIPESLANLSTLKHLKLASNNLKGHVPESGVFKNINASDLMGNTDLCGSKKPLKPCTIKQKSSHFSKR

Compound `C=C(C)COc1ccc2c(C)c(CC(=O)N3CCN(CC(=O)NCCN(C)C)CC3)c(=O)oc2c1C` [FIC04] has a Kd of 93.9 ± 19.5 µM.
